In the supplement of paper PMC10307832:

How the values were obtained:
Experiment in all cases: relative viability (nuclei count vs DMSO), 5 days (fraction); higher = more cells survive
[1] = compound: CC(C)C[C@@H](C(=O)N[C@H](C(=O)OC1CCCC1)c1ccccc1)[C@H](O)C(=O)NO [Tosedostat] + NC(=O)Nc1cc(-c2cccc(F)c2)sc1C(=O)N[C@H]1CCCNC1 [AZD7762] (partner 0.2 µM)
In short: (§1)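 For relative viability, nuclei counts in treated wells were divided by those in vehicle wells. Lung cancer cell lines had been pin-tool dosed in 1536-well plates the day after seeding and cultured for 5 days, then fixed and stained in one step (final 0.05% Triton X-100, 1% formaldehyde, 1 ug/ml Hoechst) and imaged at 4×. Doses were one drug alone or a fixed anchor-drug dose plus five library-drug doses (not always all listed) in √10 steps, and values are duplicate-plate medians.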

[2] = compound: CC(C)C[C@@H](C(=O)N[C@H](C(=O)OC1CCCC1)c1ccccc1)[C@H](O)C(=O)NO [Tosedostat] + CC(=O)c1c(C)c2cnc(Nc3ccc(N4CCNCC4)cn3)nc2n(C2CCCC2)c1=O [Palbociclib] (partner 0.5 µM)
In short: as §1

[3] = compound: CC(C)C[C@@H](C(=O)N[C@H](C(=O)OC1CCCC1)c1ccccc1)[C@H](O)C(=O)NO [Tosedostat] + CCNC(=O)c1noc(-c2cc(C(C)C)c(O)cc2O)c1-c1ccc(CN2CCOCC2)cc1 [Luminespib] (partner 0.01 µM)
In short: as §1

[4] = compound: CC1=NN=C(O1)C2=NN=C(C=C2)N3CCC(CC3)OC4=C(C=CC(=C4)F)Cl + CC(=O)c1c(C)c2cnc(Nc3ccc(N4CCNCC4)cn3)nc2n(C2CCCC2)c1=O [Palbociclib] (partner 0.5 µM)
In short: as §1

| Cell Line | relative viability ([1]; first compound 0.02 µM) | relative viability ([1]; first compound 0.06325 µM) | relative viability ([1]; first compound 0.2 µM) | relative viability ([1]; first compound 0.6325 µM) | relative viability ([1]; first compound 2 µM) | relative viability ([2]; first compound 0.02 µM) | relative viability ([2]; first compound 0.06325 µM) | relative viability ([2]; first compound 0.2 µM) | relative viability ([2]; first compound 0.6325 µM) | relative viability ([2]; first compound 2 µM) | relative viability ([3]; first compound 0.02 µM) | relative viability ([3]; first compound 0.06325 µM) | relative viability ([3]; first compound 0.2 µM) | relative viability ([3]; first compound 0.6325 µM) | relative viability ([3]; first compound 2 µM) | relative viability ([4]; first compound 0.253 µM) | relative viability ([4]; first compound 0.8 µM) | relative viability ([4]; first compound 2.53 µM) | relative viability ([4]; first compound 8 µM) |
| --- | --- | --- | --- | --- | --- | --- | --- | --- | --- | --- | --- | --- | --- | --- | --- | --- | --- | --- | --- |
| NCI-H2347 | 0.631 | 0.821 | 0.863 | 0.745 | 0.682 | 0.411 | 0.451 | 0.407 | 0.494 | 0.4 | 0.421 | 0.425 | 0.594 | 0.417 | 0.474 | 0.459 | 0.43 | 0.411 | 0.386 |
| LK-2 | 0.459 | 0.475 | 0.381 | 0.354 | 0.617 | 0.768 | 0.702 | 0.721 | 0.739 | 0.909 | 0.175 | 0.21 | 0.167 | 0.221 | 0.214 | 0.739 | 0.818 | 0.772 | 0.614 |
| NCI-H1651 | 0.458 | 0.486 | 0.588 | 0.439 | 0.384 | 0.528 | 0.525 | 0.511 | 0.553 | 0.535 | 0.787 | 0.715 | 0.981 | 0.828 | 0.582 | 0.337 | 0.387 | 0.331 | 0.346 |
| ABC-1 | 1.2 | – | 0.755 | 0.822 | 0.732 | 0.826 | 0.706 | 0.704 | 0.576 | 0.531 | 0.622 | 0.706 | 0.596 | 0.647 | 0.398 | 0.411 | 0.271 | 0.287 | 0.28 |
| SW 900 | 0.56 | 0.603 | 0.644 | 0.661 | 0.556 | 0.446 | 0.462 | 0.479 | 0.479 | 0.466 | 0.175 | 0.182 | 0.19 | 0.17 | 0.155 | – | 0.574 | 0.504 | 0.463 |
| A-427 | 0.787 | 0.804 | 0.773 | 0.682 | 0.698 | 0.501 | 0.514 | 0.55 | 0.494 | 0.507 | 0.882 | 0.739 | 1.01 | 0.919 | 1.08 | 0.567 | 0.566 | 0.584 | 0.564 |
| LCLC-97TM1 | 0.291 | 0.209 | 0.164 | 0.197 | 0.195 | 0.227 | 0.184 | 0.185 | 0.221 | 0.194 | 0.775 | 0.81 | 0.688 | 0.644 | 0.652 | 0.184 | – | 0.164 | 0.19 |
| NCI-H1792 | 0.523 | 0.77 | 0.606 | 0.644 | 0.586 | 0.659 | 0.634 | 0.612 | 0.683 | 0.695 | 0.427 | 0.356 | 0.433 | 0.802 | 0.935 | 0.358 | 0.502 | 0.449 | 0.474 |
| LCLC-103H | 0.886 | 0.713 | 0.69 | 0.77 | 0.852 | 0.447 | 0.483 | 0.456 | 0.504 | 0.486 | 1.04 | 0.932 | 1.04 | 0.998 | 0.9 | 0.343 | 0.32 | 0.321 | 0.343 |
